From patent US20240269238A1, “Therapeutic Regimens and Methods for Reducing Body Weight in a Subject with Fatty Liver Disease using a GLP-1R and GCGR Agonist” (Spitfire Pharma LLC, priority 2022, published 2024)
“Also recorded” adds a separate entry of the source.

What was measured:
Format in all cases: in vivo, human
[1] = tested on: alanine aminotransferase (ALT); assay: Phase 1 12-week NAFLD study (Example 1): serum ALT; conditions: for ALT reduction: week 12; for decline in serum ALT levels: subjects with baseline serum ALT above 30 IU/L, 12 weeks
From the text: (§1) Provided herein is disclosure of a Phase 1, multicenter, randomized, double-blind, placebo-controlled study to assess the effects of Pemvidutide (also termed herein as ALT-801), the safety of Pemvidutide and effects on hepatic fat fraction, anthropometric parameters, lipid metabolism, inflammatory markers and fibrosis markers in diabetic and non-diabetic (type 2 diabetes) overweight and obese (BMI 28.0 kg/m^2) subjects with NAFLD. This study was designed to assess changes in hepatic fat fraction by MRI-PDFF (magnetic resonance imaging-proton density fat fraction) in diabetic and non-diabetic overweight and obese subjects with NAFLD after 12 weeks of ALT-801 treatment. The trial was conducted without adjunctive diet and exercise interventions. The study assessed changes in body weight, lipid metabolism, metabolic markers, and inflammatory markers and safety and tolerability of ALT-801 after 12 weeks of treatment. Subjects were stratified for the presence or absence of diabetes at baseline. Fibroscan and cT1 assessments evaluated changes in liver inflammatory and fibrotic activity at the end of 12 weeks of treatment.
(§2) The study, described in this example, was carried out in 94 subjects overweight and obese (body mass index [BMI] ≥28.0 kg/m^2) Type 2 diabetic and non-diabetic subjects with nonalcoholic fatty liver disease (NAFLD) over about 4.5 months, including up to a 35-day screening period, and 85-day treatment period and a 25-day follow-up period, with treatment with ALT-801 (a composition comprising SEQ ID NO.: 1, “study medication”) or placebo administered by subcutaneous (SC) injection once weekly for up to twelve (12) doses.
(§3) The safety objective of this study was to assess the safety and tolerability of ALT-801 in 18-65 years old subjects with NAFLD (NAFLD without significant fibrosis, defined as FibroScan® controlled attenuation parameter (CAP) ≥280 dB/m and liver stiffness measurement (LSM)<10 kPa (i.e., indicating the absence of significant fibrosis), magnetic resonance imaging derived proton density fat fraction (MRI-PDFF) ≥10%), hemoglobin Alc (HbAlc) of less than 9.5%, and alanine aminotransferase (ALT) or aspartate aminotransferase (AST) values of ≤[…]. The pharmacodynamic (PD) objectives of this study were to evaluate the effects of ALT-801 on hepatic fat fraction, anthropometric parameters, lipid metabolism, metabolic markers, inflammatory markers, fibrosis markers, and lipotoxicity markers. The pharmacokinetic (PK) objectives of this study were to evaluate the effects of ALT-801 and metformin exposure (drug interactions) on the subjects (e.g., ALT-801 and metformin concentrations in blood over time).
(§4) After providing informed consent, subjects underwent a screening period of up to 35 days. Subjects were instructed on how to maintain their normal diets, alcohol consumption and physical activities and not to start any new diets, supplements, or exercise programs at any time while participating in the study. Counseling was provided on diet and exercise on the Day 1 visit and reinforced at subsequent visits. Study subjects were randomized 1:1:1:1 to one of the following treatment arms: 1) ALT-8011.2 mg SC once weekly for 12 weeks; 2) ALT-8011.8 mg SC once weekly for 12 weeks; 3) ALT-801 0.6 mg SC at week 1, 1.2 mg SC at week 2, 1.8 mg SC once weekly for 2 weeks (weeks 3 and 4), and 2.4 mg SC once weekly for weeks 5 through 12; or, 4) placebo SC once weekly for 12 weeks. Subjects were stratified by presence or absence of diabetes at baseline. Subjects in the treatment arm with a final therapeutic dose of 2.4 mg underwent a rapid 4-week dose escalation to improve tolerability and reduce the possibility of adverse events. […] See FIG. 7, second 2.4 mg column as compared to the first 2.4 mg column (this study). See WO 2022/125598. […]

[2] = Phase 1b 24-week NAFLD study (Example 3): serum lipids, blood pressure, heart rate, glycemic control
From the text: Provided herein is disclosure of a 12-week extension study of the study provided in Example 1, providing a 24-week a Phase 1b, randomized, double-blind, placebo-controlled study to assess the effects of pemvidutide (also termed herein as ALT-801), the safety of pemvidutide and effects on weight loss, hepatic fat fraction, anthropometric parameters, lipid metabolism, as well as inflammatory, fibrosis and other markers in diabetic and non-diabetic (type 2 diabetes) overweight and obese (BMI≥28.0 kg/m^2) subjects with NAFLD (defined as liver fat content (LFC) by MRI-PDFF ≥10%; absence of significant fibrosis, defined as FibroScan® LSM ≤10 kPa), alanine aminotransferase (ALT) and aspartate aminotransferase (AST) laboratory values of ≤75 IU/L and HbA1c <9.5. Men and women aged 18-65 years were studied. Diabetic subjects were defined as those that have undergone stable dose (≥3 months) metformin or SLGT-2 therapy and no use of insulin, sulfonylureas, DPP-4, GLP-1 treatment; Ninety-four (94) subjects were enrolled in the initial 12-week Phase 1b NAFLD trial and 83 subjects who completed were invited to receive a total of 12 additional weeks of blinded treatment. Of those subjects, 66 consented to rollover, of which 64 were eligible to participate.
The primary endpoint of this study was a reduction in liver fat content (LFC) by MRI-PDFF at Week 24 compared to Week 0 (zero). Key secondary endpoints include percent (%) weight loss at Week 24 compared to Week 0 (zero), and liver inflammation by alanine aminotransferase (ALT) levels and corrected T1 (cT1) imaging at Week 24 as compared to Week 0 (zero). Adverse events (AEs), including serious and severe AEs, AEs leading to discontinuation, GI tolerability, vital signs, and glycemic control including fasting glucose and HbA1c levels were also measured.

[3] = Phase 1 12-week NAFLD study (Example 1): safety, tolerability, serum lipids, glycemic control, heart rate; conditions: for AE leading to treatment discontinuation, number of subjects: gastrointestinal intolerance
From the text: as §1, §2, §3, §4

CC[C@H](C)[C@H](NC(=O)[C@H](Cc1ccccc1)NC(=O)[C@H](CCC(=O)O)NC(=O)[C@@H]1CCCCNC(=O)CC[C@H](NC(=O)[C@H](CC(=O)O)NC(=O)[C@H](CC(C)C)NC(=O)[C@H](Cc2ccc(O)cc2)NC(=O)[C@H](CCCCN)NC(=O)[C@H](CO)NC(=O)[C@H](Cc2ccc(O)cc2)NC(=O)[C@H](CC(=O)O)NC(=O)[C@H](CO)NC(=O)[C@@H](NC(=O)[C@H](Cc2ccccc2)NC(=O)[C@@H](NC(=O)CNC(=O)[C@H](CCC(N)=O)NC(=O)C(C)(C)NC(=O)[C@@H](N)Cc2c[nH]cn2)[C@@H](C)O)[C@H](C)O)C(=O)N[C@@H](CCCCNC(=O)C2O[C@@H](OCCCCCCCCCCCCCCCCCC(=O)O)C(O)C(O)[C@@H]2O)C(=O)N[C@@H](C)C(=O)N[C@@H](C)C(=O)N1)C(=O)N[C@@H](CCC(N)=O)C(=O)N[C@@H](Cc1c[nH]c2ccccc12)C(=O)N[C@@H](CC(C)C)C(=O)N[C@@H](CC(C)C)C(=O)N[C@@H](CCC(N)=O)C(=O)N[C@H](C(N)=O)[C@@H](C)O (stereo partly drawn) [ALT-801, Pemvidutide]
ALT reduction ([1]; all subjects, 1.2 mg): −11.2% | ALT reduction ([1]; all subjects, 1.8 mg): −13.8% | ALT reduction ([1]; all subjects, 'the 1.8 mg dose' as printed (second mention)): −13.6% | ALT reduction ([1]; subjects with baseline ALT >=30 IU/L, 1.2 mg): −17.8% | ALT reduction ([1]; subjects with baseline ALT >=30 IU/L, 1.8 mg): −20.8% | ALT reduction ([1]; subjects with baseline ALT >=30 IU/L, 2.4 mg): −27% | decline in serum ALT levels ([1]; 2.4 mg dose cohort): 27.0 IU/L | decline in serum ALT levels ([1]; all dose levels): more than 17 IU/L | systolic blood pressure reduction ([2]; 2.4 mg per week, week 24): significant | blood pressure and heart rate ([2]; all doses, week 24): improvements in blood pressure without clinically meaningful increases in heart rate | serum lipids ([2]; all doses, week 24): improvements in serum lipids | glycemic parameters (fasting glucose and HbA1c) ([2]; diabetic patients, all doses, Week 24): improvements in glycemic parameters | AE leading to treatment discontinuation, rate ([3]; 1.8 mg arm, 12 weeks): 4.3% | AE leading to treatment discontinuation, number of subjects ([3]; 1.8 mg arm, 12 weeks): 1 | AE leading to treatment discontinuation, rate ([3]; 2.4 mg arm, 12 weeks): 4.2% | AE leading to treatment discontinuation, number of subjects ([3]; 2.4 mg arm, 12 weeks): 1 | AEs leading to treatment discontinuation (in words) ([3]; 12 weeks): very low rates | clinically significant ALT elevations (3-fold or greater the upper limit of normal) ([3]; 12 weeks): No clinically significant ALT elevations; also recorded: no three-fold or greater ALT elevations were observed | glycemic control (HbA1c, fasting glucose) ([3]; 12 weeks): unaffected | increases in heart rate (HR) ([3]; 12 weeks): 1-3 beat-per-minute (bpm) | serious and severe adverse events ([3]; 12 weeks treatment): No serious adverse events (AEs), severe AEs were observed; also recorded: no severe or serious AEs were observed | symptoms experienced by subjects (severity) ([3]; 12 weeks treatment): predominantly mild and transient | serum lipids ([3]; after 12 weeks): not significantly altered | tolerability ([3]; each treatment arm (FIG. 7)): well tolerated
